# In patent US20040076974A1, “Liver necrosis predictive genes” (priority 2002, published 2004):
# Where “and” joins values, the source holds several entries; their conditions need not be identical. Identical values can stand only once. Like-named read-outs stand apart in the source and are kept apart here.
# Key:
# [1] = tested on: toxicologically relevant rat genes (rat CT array); settings: rat, in vivo
# Sprague Dawley rats = settings: rat, in vivo; for Liver Necrosis / Score (histopathology liver necrosis severity score): ip
# In short: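 Toxicity calls (necrosis present or absent at 72 h) and histopathology scores were correlated with tissue gene expression from Crl:CD Sprague Dawley rats. Animals, usually 3 treated with compound by i.p. route and 3 given vehicle, were killed at 6, 24 or 72 h and tissues frozen immediately in liquid nitrogen.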
compound,measurement,setting,value
O=P1(N(CCCl)CCCl)NCCCO1 (centres unmarked) [cyclophosphamide],3-hydroxyisobutyrate dehydrogenase expression,[1],0.9805 and 0.7489 and 0.9559 and 1.069
same,14-3-3 zeta expression,[1],1.184 and 1.14 and 0.9397 and 1.393 and 1.097 and 1.241 and 0.8233 and 0.7916
same,60S ribosomal protein L6 expression,[1],0.9039 and 0.9014 and 0.8838 and 1.028 and 0.8728 and 0.8315
same,ATPase inhibitor (rat mitochondrial IF1 protein) expression,[1],0.7509 and 0.9233 and 0.8847 and 0.6961 and 0.9379 and 0.8829 and 0.8577 and 0.9897
same,Adenine nucleotide translocator 1 expression,[1],0.9086 and 0.7561 and 1.167
same,Aflatoxin B1 aldehyde reductase expression,[1],0.6743 and 0.8573 and 0.9459 and 0.6588 and 0.7015
same,Alpha-1 microglobulin/bikunin precursor (Ambp) expression,[1],1.017 and 0.5993 and 0.8086
same,Alpha-2-macroglobulin expression,[1],0.846 and 0.9185 and 0.7109 and 1.376 and 0.7513
same,"Alpha-2-macroglobulin, sequence 2 expression",[1],0.9485 and 1.095 and 1.193
same,Alpha-prothymosin expression,[1],0.6454 and 0.6204
same,Alpha-tubulin expression,[1],1.198 and 0.7656 and 0.8189
same,Annexin V expression,[1],1.206 and 1.05 and 1.01
same,Apolipoprotein All expression,[1],0.9781 and 0.8882 and 0.8841
same,Apolipoprotein C1 expression,[1],0.9407 and 0.9263 and 1.074
same,Apolipoprotein CIII expression,[1],0.9783 and 0.6934 and 0.9372
same,Aquaporin-3 (AQP3) expression,[1],0.9643 and 0.9481 and 0.9808
same,Arginosuccinate synthetase 1 expression,[1],1.222 and 0.8241 and 1.258
same,Bax (alpha) expression,[1],1.239 and 1.237 and 1.357 and 1.269 and 0.9338
same,"Beta-actin, sequence 2 expression",[1],1.01 and 0.7994 and 0.7978
same,"Beta-tubulin, class I expression",[1],0.6539 and 0.688
same,Betaine homocysteine methyltransferase (BHMT) expression,[1],0.479 and 0.46 and 0.7332
same,Biliverdin reductase expression,[1],0.8817 and 0.9203 and 1
same,C-reactive protein expression,[1],1.634 and 0.981 and 1.457
same,CDK108 expression,[1],0.8582 and 0.7188 and 0.8687
same,Calpactin I heavy chain expression,[1],1.229 and 1.24 and 1.238 and 1.077 and 1.066 and 1.019 and 0.9156
same,Calpain 2 expression,[1],0.949 and 0.9377 and 0.9321
same,Cathepsin B expression,[1],0.8937 and 0.8218 and 0.8443
same,Cathepsin S expression,[1],1.022 and 1.151
same,Cofilin expression,[1],1.007 and 0.8938 and 0.9356
same,Collagen type II expression,[1],0.9485 and 0.8839 and 0.6238
same,Contrapsin-like protease inhibitor (CPi-21) expression,[1],1.085 and 0.6397 and 0.8351
same,Cyclin D1 expression,[1],0.8933 and 1.39
same,Cystatin C expression,[1],0.9711 and 1.107 and 0.9417
same,Dynamin-1 (D100) expression,[1],0.9779 and 1.159 and 1.053 and 0.8876 and 0.9989 and 0.9805 and 0.8392 and 0.9019
same,Elongation factor-1 alpha expression,[1],1.136 and 0.9264
same,Epidermal growth factor expression,[1],1.068 and 1.046 (2×) and 0.855 and 1.03
same,F1-ATPase beta subunit expression,[1],0.9746 and 0.7787 and 0.8888
same,Fas antigen expression,[1],1.289 and 1.407 and 0.9112 and 1.614 and 1.141
same,Fatty acid synthase expression,[1],0.8145 and 0.6404 and 0.4288
same,Gadd45 expression,[1],0.951 and 0.9302 and 1.226 and 0.8099 and 0.9252
same,Gadd153 expression,[1],1.107 and 1.088 and 1.217 and 1.23 and 1.048
same,Glutathione S-transferase theta-1 expression,[1],1.063 and 0.5752 and 0.7421
same,Heme oxygenase expression,[1],0.9535 and 0.8807 and 1.153 and 0.8353 and 0.9394 and 1.116 and 1.353 and 1.508
same,High affinity IgE receptor gamma chain (FcERIgamma) expression,[1],0.8735 and 0.8896 and 0.9764
same,Hypoxanthine-guanine phosphoribosyltransferase expression,[1],0.9194 and 0.7728 and 0.8641
same,ID-1 expression,[1],1.442 and 1.187 and 1.516 and 0.9754 and 1.354
same,IgE binding protein expression,[1],0.8797
same,Integrin beta1 expression,[1],1.174 and 0.9675 and 1.666 and 0.9992
same,Interleukin-18 expression,[1],0.9442 and 1.131
same,JNK1 stress activated protein kinase expression,[1],1.083 and 1.357
same,L-gulono-gamma-lactone oxidase expression,[1],0.9031 and 1.152 and 0.724 and 0.7478 and 0.9085
same,Lecithin: cholesterol acyltransferase expression,[1],1.164 and 0.8942 and 0.9655
same,Matrin F/G expression,[1],1.192 and 0.8718 and 1.349 and 1.163
same,Melanoma-associated antigen ME491 expression,[1],0.8571 and 0.8832 and 0.9165
same,Monocyte chemotactic protein receptor (CCR2) expression,[1],0.9135 and 0.9294 and 1.707 and 0.9161 and 1.021
same,Multidrug resistant protein-1 expression,[1],1.07 and 0.9469 and 1.398
same,Multidrug resistant protein-2 expression,[1],1.024 and 1.129 and 1.355
same,"NADP-dependent isocitrate dehydrogenase, cytosolic expression",[1],0.8988 and 1.062
same,NIPK expression,[1],1.292 and 0.8721
same,Nucleoside diphosphate kinase beta isoform expression,[1],0.9788 and 0.8819 and 0.9694
same,Organic anion transporter 3 expression,[1],1.199 and 1.24 and 0.8444 and 0.9666
same,Organic cation transporter 3 expression,[1],0.9369 and 0.9031 and 0.9971 and 1.049 and 1.006 and 0.9297 and 0.8878
same,Ornithine decarboxylase expression,[1],1.176 and 1.138 and 1.239 and 1.627 and 1.232 and 1.15 and 0.9487 and 1.103
same,Osteoactivin expression,[1],1.044 and 1.068 and 1.102
same,PAR interacting protein expression,[1],0.9853 and 0.8819 and 1.001 and 0.9074 and 0.8501
same,Phase-1 RCT-15 expression,[1],1.548
same,Phase-1 RCT-24 expression,[1],0.8922
same,Phase-1 RCT-33 expression,[1],0.9894 and 0.9036 and 0.7825 and 0.5992
same,Phase-1 RCT-36 expression,[1],0.8405 and 0.8638 and 0.7841
same,Phase-1 RCT-38 expression,[1],0.6634
same,Phase-1 RCT-39 expression,[1],1.102 and 0.8162
same,Phase-1 RCT-40 expression,[1],0.9476 and 0.7827 and 0.6627 and 0.9191
same,Phase-1 RCT-43 expression,[1],1.413
same,Phase-1 RCT-48 expression,[1],0.7872
same,Phase-1 RCT-49 expression,[1],0.9994
same,Phase-1 RCT-50 expression,[1],1.001 and 0.9172
same,Phase-1 RCT-57 expression,[1],1
same,Phase-1 RCT-58 expression,[1],0.9564
same,Phase-1 RCT-61 expression,[1],0.956 and 0.9001
same,Phase-1 RCT-65 expression,[1],1.662
same,Phase-1 RCT-68 expression,[1],1.562
same,Phase-1 RCT-78 expression,[1],0.8268
same,Phase-1 RCT-81 expression,[1],0.9793
same,Phase-1 RCT-88 expression,[1],0.7545 and 0.7728 and 0.8998 and 0.9204
same,Phase-1 RCT-89 expression,[1],0.8326
same,Phase-1 RCT-92 expression,[1],0.7803 and 0.7782
same,Phase-1 RCT-117 expression,[1],0.9098
same,Phase-1 RCT-121 expression,[1],0.9382
same,Phase-1 RCT-123 expression,[1],0.8497
same,Phase-1 RCT-128 expression,[1],0.7223
same,Phase-1 RCT-137 expression,[1],0.7713
same,Phase-1 RCT-138 expression,[1],0.9171
same,Phase-1 RCT-144 expression,[1],0.8012 and 0.9797 and 0.8356
same,Phase-1 RCT-146 expression,[1],0.8995
same,Phase-1 RCT-149 expression,[1],1.199
same,Phase-1 RCT-152 expression,[1],0.9267 and 0.8689
same,Phase-1 RCT-154 expression,[1],0.9702
same,Phase-1 RCT-156 expression,[1],1.626
same,Phase-1 RCT-164 expression,[1],1.443 and 0.9271
same,Phase-1 RCT-179 expression,[1],0.9473 and 0.8452 and 0.9271
same,Phase-1 RCT-180 expression,[1],0.9312 and 0.9629
same,Phase-1 RCT-182 expression,[1],0.7286 and 0.6249 and 0.7487 and 1.104
same,Phase-1 RCT-189 expression,[1],1.097 and 0.7075 and 0.8923
same,Phase-1 RCT-192 expression,[1],1.102
same,Phase-1 RCT-207 expression,[1],0.9999 and 1.403 and 0.9634 and 0.8151
same,Phase-1 RCT-211 expression,[1],1.001
same,Phase-1 RCT-213 expression,[1],0.9194 and 0.9272
same,Phase-1 RCT-227 expression,[1],0.8544 and 0.7558
same,Phase-1 RCT-230 expression,[1],0.8887
same,Phase-1 RCT-241 expression,[1],0.9823
same,Phase-1 RCT-258 expression,[1],1.294 and 1.004 and 1.001
same,Phase-1 RCT-260 expression,[1],0.9269
same,Phase-1 RCT-264 expression,[1],0.7874
same,Phase-1 RCT-270 expression,[1],0.9664 and 0.6832
same,Phase-1 RCT-271 expression,[1],0.642 and 0.7477
same,Phase-1 RCT-288 expression,[1],0.8319 and 0.9535
same,Phase-1 RCT-290 expression,[1],0.6874 and 0.7078 and 0.8375
same,Phase-1 RCT-291 expression,[1],1 and 0.8077 and 0.9279
same,Phase-1 RCT-292 expression,[1],0.8838
same,Poly(ADP-ribose) polymerase expression,[1],0.9399 and 0.8855 and 1.07
same,Presenilin-1 expression,[1],0.6993 and 0.8827 and 0.7827
same,Proliferating cell nuclear antigen gene expression,[1],0.8773 and 0.9599 and 1
same,"Protein tyrosine phosphatase, receptor type, D expression",[1],1.351 and 1.117
same,"Pyruvate kinase, muscle expression",[1],0.9707 and 1.019 and 0.8026
same,Retinol dehydrogenase type III expression,[1],1.384 and 0.6954 and 0.7914
same,Ribosomal protein S8 expression,[1],0.9951 and 0.8646 and 0.9055
same,Ribosomal protein S17 expression,[1],0.973 and 0.9247 and 0.8883 and 1.41 and 1.034 and 0.9413
same,Stathmin expression,[1],1.012 and 1.005 and 0.8767
same,Thioredoxin-1 (Trx1) expression,[1],0.9618 and 0.9127 and 0.8599
same,Thymidylate synthase expression,[1],1.077 and 1.121 and 1.142
same,Thymosin beta-10 expression,[1],1.026 and 0.8658 and 0.6552
same,Tissue plasminogen activator expression,[1],0.8917 and 0.8347 and 0.9056
same,Transitional endoplasmic reticulum ATPase expression,[1],0.9095 and 0.8634 and 0.9474
same,Transthyretin expression,[1],0.9173 and 0.9384 and 0.8358 and 0.667 and 1.075
same,Ubiquitin conjugating enzyme (RAD 6 homologue) expression,[1],0.9811 and 1.057 and 0.8291 and 1.341 and 1.041 and 1.145 and 0.8334 and 1.02
same,Uncoupling protein 2 expression,[1],0.8638 and 0.7241
same,Zinc finger protein expression,[1],0.991 and 1.034 and 1.076 and 1.004 and 1.101 and 0.9835 and 1.081 and 1.11
same,c-myc expression,[1],0.9533 (2×) and 0.912 and 1.636 and 0.8965
same,p55CDC expression,[1],0.9412 and 1.059 and 0.9495
same,{Phase-1 RCT 98} expression,[1],0.8899 and 0.9469
same,{Ribosomal protein 16} expression,[1],1.097 and 0.9357 and 0.8372
same,Liver Toxicity Necrosis Classification,Sprague Dawley rats,no
same,Liver Necrosis,Sprague Dawley rats; 25 mg/kg,no
same,Score (histopathology liver necrosis severity score),Sprague Dawley rats; 25 mg/kg,1
same,Liver Necrosis,Sprague Dawley rats; 100 mg/kg,no
same,Score (histopathology liver necrosis severity score),Sprague Dawley rats; 100 mg/kg,1
